The target in test [1] is T1, diadenylate cyclase of Streptococcus suis (ssDacA) (Streptococcus suis, UniProt A0A0H3N0L3).
T1 construct: gene dacA; C-terminal catalytic domain (residues 99 to 283), His-tagged, from S. suis SC19
As to the kind of experiment: Kinase-Glo ATP consumption assay with purified enzyme ([…] ssDacA); confirmed by HPLC of c-di-AMP. Type of test: biochemical.

The target in test [2] is T1, diadenylate cyclase of Streptococcus suis (ssDacA). As to the kind of experiment: HPLC quantification of product formed by purified enzyme. The test is classed as biochemical.

Each structure is given as a SMILES string.

T1 sequence (A0A0H3N0L3 entry or part of it): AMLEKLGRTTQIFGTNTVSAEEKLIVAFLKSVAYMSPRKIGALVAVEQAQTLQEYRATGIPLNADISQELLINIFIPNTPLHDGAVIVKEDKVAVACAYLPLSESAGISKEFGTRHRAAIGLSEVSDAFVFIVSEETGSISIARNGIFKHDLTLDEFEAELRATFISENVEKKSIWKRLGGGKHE

As usually defined, the IC50 is the concentration needed to halve the response being measured. The low end stands for greater potency in that assay, the high end for weaker potency in that assay. `Oc1ccc2ccccc2c1SSc1c(O)ccc2ccccc12` [IPA-3, 2,2′-dihydroxy-1,1′-dinapthyldisulfide]: half-maximal inhibition in test [1] (IC50) was put at 38.2 µM.
`Nc1ncnc2c1ncn2[C@@H]1O[C@@H]2COP(=O)(O)O[C@H]3[C@@H](O)[C@H](n4cnc5c(N)ncnc54)O[C@@H]3COP(=O)(O)O[C@H]2[C@H]1O` [c-di-AMP]: the “HPLC quantification of product formed by purified enzyme” value in test [2] was “the catalytic product c-di-AMP in the reaction was detected in the presence and absence of IPA-3 in vitro”.

The values are drawn from publication PMC8944544, “IPA-3: An Inhibitor of Diadenylate Cyclase of Streptococcus suis with Potent Antimicrobial Activity” (Antibiotics, 2022).
